{"source": "BindingDB's records for doi:10.1002/1439-7633(20010504)2", "about": "(University of NeuchÂTel, 2001)", "data": [{"biological_target": "T1, Delta-aminolevulinic acid dehydratase (Escherichia coli (strain K12), UniProt P0ACB2)", "T1 sequence (P0ACB2 whole entry)": "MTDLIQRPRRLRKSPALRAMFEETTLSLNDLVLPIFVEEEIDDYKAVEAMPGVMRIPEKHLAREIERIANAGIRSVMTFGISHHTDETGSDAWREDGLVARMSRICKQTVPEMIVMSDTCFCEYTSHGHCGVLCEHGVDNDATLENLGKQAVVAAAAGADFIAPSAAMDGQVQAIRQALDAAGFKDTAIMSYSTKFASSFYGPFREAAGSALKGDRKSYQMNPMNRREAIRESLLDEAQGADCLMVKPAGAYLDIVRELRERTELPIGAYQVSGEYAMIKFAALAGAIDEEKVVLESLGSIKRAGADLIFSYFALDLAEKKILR", "experiment": "PBGS Assay", "settings": "pH 8.1; 37 °C", "text": "The PBGS assay is a colorimetric assay based on the reaction between PBG and 4-dimethylaminobenzaldehyde (Ehrlich's reagent).", "units": {"Ki": "mM"}, "values": [{"smiles": "CC(=O)CCC(=O)O", "note": "[Substrate analogue, 8]", "Ki": 2.2}, {"smiles": "O=C(O)CCC(=O)CF", "note": "[Substrate analogue, 9]", "Ki": 0.085}, {"smiles": "COC(=O)CCC(=O)O", "note": "[Substrate analogue, 10]", "Ki": 38.4}, {"smiles": "CNC(=O)CCC(=O)O", "note": "[Substrate analogue, 12]", "Ki": 36.4}, {"smiles": "CC(=O)OCC(=O)O", "note": "[Substrate analogue, 13]", "Ki": 24.5}, {"smiles": "NCC(=O)OCC(=O)O", "note": "[Substrate analogue, 14]", "Ki": 18.2}, {"smiles": "CC(=O)NCC(=O)O", "note": "[Substrate analogue, 15]", "Ki": 18.8}, {"smiles": "CC(=O)CC[N+](=O)[O-]", "note": "[Substrate analogue, 17]", "Ki": 0.028}, {"smiles": "O=C(CF)CC[N+](=O)[O-]", "note": "[Substrate analogue, 18]", "Ki": 0.021}, {"smiles": "COC(=O)CC[N+](=O)[O-]", "note": "[Substrate analogue, 19]", "Ki": 1.88}, {"smiles": "O=C(O)CC[N+](=O)[O-]", "note": "[Substrate analogue, 20]", "Ki": 44.9}, {"smiles": "COC(=O)CCC(=O)NCC(=O)CCC(=O)O", "note": "[Substrate analogue, 24]", "Ki": 0.243}, {"smiles": "COC(=O)CCC(=O)NCC(=O)CC[N+](=O)[O-]", "note": "[Substrate analogue, 28]", "Ki": 0.02}, {"smiles": "O=C(O)CCC(=O)CCCCC[N+](=O)[O-]", "note": "[Substrate analogue, 31]", "Ki": 4.9}, {"smiles": "O=C(O)CCCCNC(=O)CCC(=O)O", "note": "[Substrate analogue, 32]", "Ki": 22.9}, {"smiles": "O=C(O)CCCCNC(=O)CC[N+](=O)[O-]", "note": "[Substrate analogue, 33]", "Ki": 18.2}, {"smiles": "O=C(O)CCC(=O)O", "note": "[Succinic acid, 6]", "Ki": 12.5}]}]}
